Legend:
HTLV-3 PR = HTLV-3 PR (Human T-cell leukemia virus 3, UniProt Q4U0X6); assay: Protease activity assay with oligopeptide substrates (RP-HPLC), HTLV-3 PR; format: biochemical, human T-cell leukemia virus type 3; design: made in house; host or cells: E. coli BL21(DE3), pET11a; conditions: cleavage sites of viruses other than HTLV, pH 5.6, 37 °C, longer incubation time (24 h) also applied
From the text: (§1) The oligopeptides representing the naturally occurring matrix/capsid (MA/CA), capsid/nucleocapsid (CA/NC), trans-frame protein/protease (TF1/PR), and PR/p1 cleavage sites of HTLV-1, -2, and -3 PRs were used as substrates. The oligopeptide substrates representing the natural sequences of HTLV PRs were ordered from BioBasic, while the oligopeptide substrates representing naturally occurring cleavage sites of various viruses, or the wild-type, the shortened, and the P4, P3, P2, P1, or P1′ variants of HTLV-1 MA/CA cleavage site (KTKVL*VVQPK) were in-house stocks. All peptides were dissolved in distilled water.
(§2) For kinetic measurements, we applied 10 µL 2× incubation buffer (0.5 M K3PO4, 4 M NaCl, 10 v/v% glycerol, 10 mM DTT, pH 5.6), 5 µL of HTLV-1, HTLV-2, or HTLV-3 PR (final concentration of the active enzyme was in 0.1–34.4 nM), and 0.5–5 µL oligopeptide substrate representing HTLV PR natural cleavage sites (0.05–1.10 mM final concentration). The final volume of the reaction mixture was set to 20 µL with distilled water if it was necessary. The reactions were initiated by the addition of the enzyme, were incubated at 37 °C for 0.5–4 h, and stopped by the addition of 180 µL 1 v/v% TFA. For substrates representing natural cleavage sites of retroviruses other than HTLV-1, -2, and -3 PRs (HIV-1, equine infectious anemia virus (EIAV), Rous sarcoma virus (RSV), mouse mammary tumor virus (MMTV), Mason-Pfizer monkey virus (MPMV), and murine leukemia virus (MuLV) and BLV) in a longer incubation time (24 h) was also applied. The cleavage products were separated by using a Nova-Pack C18 RP-HPLC column (3.9 mm × 150 mm, Waters Associates Inc, Milford, MA, USA) on HPLC (Merck-Hitachi LaChrom). Water-acetonitrile gradient (0–100%) was used for separation in the presence of 0.05% TFA at 2 mL/min flow rate. The kinetic parameters were determined by fitting the data—obtained at less than 20% substrate hydrolysis—to the Michaelis–Menten equation. The Gaussian equation was used to determine pH optimum and exponential growth equation for determination of optimal NaCl concentration, while linear regression was applied to plot the dependence of enzyme activity on temperature. Prism8 software (GraphPad Software Inc., San Diego, CA, USA) was used for evaluation. The kcat/KM catalytic constants were calculated based on the active enzyme concentration, which was determined by active site titration using the method described previously.

HTLV-1 PR = conditions: cleavage sites of viruses other than HTLV, retrieved from the literature, ref [28]; cited from earlier work
From the text: Table 2 Catalytic efficiencies of HTLV PRs on different substrates representing natural cleavage site sequences. Cleavage sites are labelled by asterisks within the sequences. Abbreviations: MA (matrix), CA (capsid), NC (nucleocapsid), and TF1 (trans-frame 1). | column: kcat/KM [mM^−1 s^−1] / HTLV-1 PR || Table 3 Catalytic efficiencies of HTLV PRs on different substrates representing natural cleavage site sequences of viruses other than HTLV. Cleavage sites are labelled by an asterisk within the sequences. Abbreviations: MA (matrix), CA (capsid), NC (nucleocapsid), TF (transframe), RT (reverse-transcriptase), and IN (integrase). | column: Substrate; kcat/KM (mM^−1 s^−1) / HTLV-1 PR ^1

HTLV-2 PR = HTLV-2 PR (Human T-cell leukemia virus 2, UniProt P03363); assay: Protease activity assay with oligopeptide substrates (RP-HPLC), HTLV-2 PR; format: biochemical, human T-cell leukemia virus type 2; design: made in house; host or cells: E. coli BL21(DE3); conditions: cleavage sites of viruses other than HTLV, pH 5.6, 37 °C, longer incubation time (24 h) also applied
Chain of HTLV-2 PR (P03363 447-571): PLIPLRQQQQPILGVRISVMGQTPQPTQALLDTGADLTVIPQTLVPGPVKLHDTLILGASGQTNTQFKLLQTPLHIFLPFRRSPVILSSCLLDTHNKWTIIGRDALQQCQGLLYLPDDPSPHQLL
From the text: as §1, §2

HIV-1 PR = conditions: cleavage sites of viruses other than HTLV, retrieved from the literature, ref [28]; cited from earlier work
From the text: Table 3 Catalytic efficiencies of HTLV PRs on different substrates representing natural cleavage site sequences of viruses other than HTLV. Cleavage sites are labelled by an asterisk within the sequences. Abbreviations: MA (matrix), CA (capsid), NC (nucleocapsid), TF (transframe), RT (reverse-transcriptase), and IN (integrase). | column: kcat/KM (mM^−1 s^−1) / HIV-1 PR ^1

Chain of HTLV-3 PR (Q4U0X6 431-553): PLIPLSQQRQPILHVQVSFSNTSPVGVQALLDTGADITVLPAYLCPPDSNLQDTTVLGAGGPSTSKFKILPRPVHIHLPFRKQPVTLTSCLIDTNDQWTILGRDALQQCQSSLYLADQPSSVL

Substance | kcat/KM (HTLV-3 PR) | kcat/KM (HTLV-1 PR) | kcat/KM (HTLV-2 PR) | kcat/KM (HIV-1 PR)
PKDIF*PVTET [MPMV P12/CA, oligopeptide substrate PKDIF*PVTET] | not cleaved | 200 M⁻¹ s⁻¹ | not cleaved | 200 M⁻¹ s⁻¹
PPAIL*PIISE [BLV MA/CA, oligopeptide substrate PPAIL*PIISE] | not cleaved | 164500 M⁻¹ s⁻¹ | not cleaved | 300 M⁻¹ s⁻¹
PPAVS*LAMTM [RSV NC/PR, oligopeptide substrate PPAVS*LAMTM] | not cleaved | not cleaved | not cleaved | 130 M⁻¹ s⁻¹
PPMVG*VLDAP [BLV PR/P13, oligopeptide substrate PPMVG*VLDAP] | not cleaved | 700 M⁻¹ s⁻¹ | not cleaved | 40 M⁻¹ s⁻¹
PPVGFAG*AMA [MMTV P8/N, oligopeptide substrate PPVGFAG*AMA] | not cleaved | not cleaved | not cleaved | <10 M⁻¹ s⁻¹
PPYVG*SGLYP [RSV P2B/P10, oligopeptide substrate PPYVG*SGLYP] | not cleaved | not cleaved | not cleaved | not cleaved
PRSSLY*PALTP [MuLV MA/P12, oligopeptide substrate PRSSLY*PALTP] | not cleaved | not cleaved | not cleaved | 200 M⁻¹ s⁻¹
PSEEY*PIMID [EIAV MA/CA, oligopeptide substrate PSEEY*PIMID] | not cleaved | 700 M⁻¹ s⁻¹ | not cleaved | 15200 M⁻¹ s⁻¹
PVVAM*PVVIK [RSV P10/CA, oligopeptide substrate PVVAM*PVVIK] | not cleaved | 100 M⁻¹ s⁻¹ | not cleaved | not cleaved
RATVL*TVALH [RSV PR’/RT, oligopeptide substrate RATVL*TVALH] | not cleaved | 300 M⁻¹ s⁻¹ | not cleaved | 1900 M⁻¹ s⁻¹
SDLVL*LSAEARR [MMTV MA/PP21, oligopeptide substrate SDLVL*LSAEARR] | not cleaved | not cleaved | not cleaved | 6900 M⁻¹ s⁻¹
TATIM*MQRGN [HIV-1 P2/NC, oligopeptide substrate TATIM*MQRGN] | not cleaved | not cleaved | not cleaved | 74000 M⁻¹ s⁻¹
TFQAY*PLREA [RSV RT/IN, oligopeptide substrate TFQAY*PLREA] | not cleaved | not cleaved | not cleaved | 180 M⁻¹ s⁻¹
TQTSLL*TLDDQ [MuLV NC/PR, oligopeptide substrate TQTSLL*TLDDQ] | not cleaved | not cleaved | not cleaved | not cleaved
TSQAF*PLRAG [MuLV P12/CA, oligopeptide substrate TSQAF*PLRAG] | not cleaved | not cleaved | not cleaved | 8700 M⁻¹ s⁻¹

From article PMC7915765, “Biochemical Characterization, Specificity and Inhibition Studies of HTLV-1, HTLV-2, and HTLV-3 Proteases” (Life, 2021)
